{"source": "patent US20170274087A1", "about": "“SACCHARIDE ANALOGS AND AGENTS FOR THE DIAGNOSIS AND THERAPY OF BACTERIAL INFECTIONS” (Emory University, priority 2014, published 2017)", "key": {"maltase": {"system": "maltase", "assay": "in vitro", "protocol": "The stability of thiomaltose and maltose was investigated in the presence of maltase. Thiomaltose and maltose were incubated with 10 units of maltase, which is an enzyme that breaks maltose into two glucose molecules. The hydrolysis kinetics of thiomaltose and maltose was determined by quantifying the glucose released from thiomaltose or maltose hydrolysis."}, "Giardia": {"system": "Giardia", "assay": "Giardia growth assay in 96 well plates (coulter counter)", "format": "cell-based", "conditions": "48 hours, 37° C., DMSO at or below 0.1%", "protocol": "Methods for evaluating EC50 measurements in Giardia were established. Giardia cells were cultured in 96 well microtiter plates in anaerobic BD Bio-Bags (Becton Dickinson). Growth was assayed with a MoxiZ coulter counter (Orflo Technologies). The TMM and metroinadazole stock solutions contained DMSO to improve solubility. Giardia growth in 96 well plates with various volumes of TYDK media 10 and DMSO concentrations were evaluated over several days at 37° C. Cells grew more consistently in higher volumes of media and noted reduced growth in DMSO concentrations above 0.25%. […] Growth was evaluated after 48 hours."}, "P. aeruginosa": {"system": "P. aeruginosa", "assay": "P. aeruginosa growth inhibition (absorption, OD600)", "format": "cell-based", "conditions": "up to a 10 μM concentration; multidrug-resistant clinical isolate", "protocol": "TM-R and free radezolid were incubated with P. aeruginosa for 24 hours. OD600 were used to determine the bacteria growth.\nP. aeruginosa (5×10^8 CFUs) were incubated with various concentrations of either radezolid or TMR and the MIC was determined via absorption measurements. The P. aeruginosa strain used in this experiment was a clinical isolate, resistant to multiple antibiotics, obtained from a blood stream infection."}}, "data": [{"smiles": "OC[C@H]1O[C@H](O[C@H]2[C@H](O)[C@@H](O)[C@H](O)O[C@@H]2CO)[C@H](O)[C@@H](O)[C@@H]1O", "note": "[maltose]", "values": [{"measurement": "half-life", "setting": "maltase", "value": "~30", "unit": "min"}, {"measurement": "maltase hydrolysis (in words)", "setting": "maltase; 3 hours, 10 units of maltase", "value": "hydrolyzed completely"}]}, {"smiles": "Cc1ncc([N+](=O)[O-])n1CCO", "note": "[metronidazole]", "values": [{"measurement": "EC50", "setting": "Giardia", "value": 1.7, "unit": "µM"}]}, {"smiles": "CC(=O)NC[C@H]1CN(c2ccc(-c3ccc(CNCc4cnn[nH]4)cc3)c(F)c2)C(=O)O1", "note": "[radezolid]", "values": [{"measurement": "efficacy against P. aeruginosa growth (in words)", "setting": "P. aeruginosa", "value": "no efficacy"}]}, {"smiles": "OCC1OC(SC2C(CO)OC(O)C(O)C2O)C(O)C(O)C1O", "note": "(stereo not drawn) [thiomaltose]", "values": [{"measurement": "hydrolyzed by maltase", "setting": "maltase; 3 hours, 10 units of maltase", "value": "less than 1%"}, {"measurement": "maltase hydrolysis (in words)", "setting": "maltase; 3 hours, 10 units of maltase", "value": "negligible hydrolysis"}]}]}
